The structures appear in SMILES notation. A value given as a limit tells only on which side of the number the result lay.

Chain of recombinant human BACE-1 protein (P56817 46-501): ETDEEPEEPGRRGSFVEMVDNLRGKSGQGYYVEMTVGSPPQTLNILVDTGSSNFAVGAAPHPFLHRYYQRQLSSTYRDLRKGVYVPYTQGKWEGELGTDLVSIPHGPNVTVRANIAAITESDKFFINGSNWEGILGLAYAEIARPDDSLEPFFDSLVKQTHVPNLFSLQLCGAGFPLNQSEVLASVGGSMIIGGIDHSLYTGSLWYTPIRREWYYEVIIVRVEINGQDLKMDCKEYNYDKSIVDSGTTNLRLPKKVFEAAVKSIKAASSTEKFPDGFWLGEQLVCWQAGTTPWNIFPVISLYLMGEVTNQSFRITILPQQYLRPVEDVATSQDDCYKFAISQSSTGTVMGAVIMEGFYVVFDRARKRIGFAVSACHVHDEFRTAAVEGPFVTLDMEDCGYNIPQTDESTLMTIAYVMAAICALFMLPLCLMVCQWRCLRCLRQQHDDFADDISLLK

The target in the first series is recombinant human BACE-1 protein (Homo sapiens (Human), UniProt P56817). Briefly: Measurement of Inhibition of β-Secretase Activity. It counts as biochemical. The conditions noted are these: fluorescence-quenched peptide substrate 18 nM, BACE-1 7.4 nM, 3 h at 30° C., pH5.0; read-out: IC50 value. The method, boiled down:
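Recombinant human BACE-1 incubated with compound and Eu-cryptate-labelled biotinylated peptide substrate 3 h at 30° C in 50 mM sodium acetate pH 5.0, 0.008% Triton X-100. Streptavidin-XL665 in KF-containing phosphate buffer pH 7.0 then added, 1 h at 30° C, for time-resolved FRET read-out.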
The term IC50 denotes the midpoint of a concentration-inhibition curve. Regarding `CC1(c2cccc(NC(=O)c3cc(Cl)cc(Cl)c3)c2)CCSC(N)=N1` (stereo not shown) [Compound 775], the IC50 was less than 100 µM.
Still for that read-out and setting: under `CC1(c2cccc(NCc3cccnc3)c2)CCSC(N)=N1` (stereo not shown) [Compound 389] stands less than 100 µM; under `CC1(c2cccc(C(=O)Nc3nc4ccc(O)cc4s3)c2)CCSC(N)=N1` (stereo not shown) [Compound 1089], less than 100 µM; under `COc1ccc2nc(NC(=O)c3cccc(C4(C)CCSC(N)=N4)c3)sc2c1` (stereo not shown) [Compound 117], less than 100 µM.
Still for that read-out and setting: under `CC1(c2cccc(NC(=O)CCc3ccccc3)c2)CCSC(N)=N1` (stereo not shown) [Compound 808] stands less than 100 µM; under `CC(=O)c1ccc(C(=O)Nc2cccc(C3(C)CCSC(N)=N3)c2)cc1` (stereo not shown) [Compound 314], less than 100 µM.
Same read-out and setting: under `CC1(c2cc(NC(=O)c3ccco3)cc(-c3ccc(Cl)cc3)c2)CCSC(N)=N1` (stereo not shown) [Compound 725] stands less than 100 µM.
Turning to `Cc1cccc2cc(C(=O)Nc3cccc(C4(C)CCSC(N)=N4)c3)[nH]c12` (stereo not shown) [Compound 908], the IC50 was less than 100 µM.

Test system in a further series: not given
Experiment: not given
Details: not given
What is called melting point is the temperature, or range, at which the solid turns liquid. `CNC1=NC(C)(c2ccc(OC)cc2)CCS1` (stereo not shown) [Compound 1064] registered a melting point of 84 to 85 °C.
The same measure, in the same setting: under `CC1(c2cccc(C(=O)Nc3ccc(Cl)cc3)c2)CCSC(N)=N1` (stereo not shown) [Compound 700] stands 177 to 178 °C; under `CC1(c2cccc(OCCCN3CCCC3=O)c2)CCSC(N)=N1` (stereo not shown) [Compound 149], 143 to 145 °C.
The same measure, in the same setting: under `CC1(c2ccccc2)CCCSC(N)=N1.Cl` (stereo not shown) stands 223 to 225 °C.
The same measure, in the same setting: under `CC(=O)Nc1ccc(C2(C)CCSC(N)=N2)cc1` (stereo not shown) [Compound 1161] stands 192 to 193 °C.
As for `CCOc1ccc(C2(C)CCSC(N)=N2)cc1` (stereo not shown) [Compound 132], the melting point lay within 147 to 150 °C.
With `CC1(c2cccc(NC(=O)c3cnc4ccccc4n3)c2)CCSC(N)=N1` (stereo not shown) [Compound 1115], the melting point was 167 to 170 °C.
Same read-out and setting: under `CN(C)Cc1ccc(C(=O)Nc2cccc(C3(C)CCSC(N)=N3)c2)nc1` (stereo not shown) [Compound 653] stands 193 to 194 °C; under `CC1(c2ccccc2)CC(c2ccccc2)SC(N)=N1.Cl` (stereo not shown), 161 to 165 °C.
For the compound `COc1cccc(C2(C)CCSC(N)=N2)c1` (stereo not shown) [Compound 851], the melting point fell in the range of 82 to 83 °C.
Same read-out and setting: under `COCc1cc(NC(=O)c2ccc(Cl)cn2)cc(C2(C)CCSC(N)=N2)c1.Cl` (stereo not shown) [Compound 284] stands 181.5 °C.
Still for that read-out and setting: under `CC1(c2cccc(CNC(=O)c3ccccc3)c2)CCSC(N)=N1.Cl` (stereo not shown) stands 143 to 145 °C; under `COc1ccc(C2(C)CCSC(=N)N2C)cc1.Cl` (stereo not shown), 221 to 224 °C.
In turn, `COc1ccc(C2(c3ccc(OC)cc3)CCSC(N)=N2)cc1` [Compound 1006] returned a melting point of 88 to 90 °C.
In turn, `CC1(c2ccc3c(c2)CCO3)CCS/C(=N/S(C)(=O)=O)N1` (stereo not shown) [Compound 308] came in with a melting point of 167 to 168 °C.
Same read-out and setting: under `CCOc1cnc(C(=O)Nc2cccc(C3(C)CCSC(N)=N3)c2)cn1` (stereo not shown) [Compound 863] stands 192 to 194 °C.
For the compound `CC1(c2ccccc2)CCN=C(N)O1.Cl` (stereo not shown), the melting point lay within 205 to 206 °C.
On the same count and under the same terms, under `COc1ccc(SCCOc2cccc(C3(C)CCSC(N)=N3)c2)cc1` (stereo not shown) [Compound 916] stands 131 to 132 °C; under `CC1(C)CCC(C)(C)c2cc(C3(C)CCSC(N)=N3)ccc21` (stereo not shown) [Compound 533], 180 to 181 °C; under `CC1(c2cccc(NC(=O)c3ccc(C#N)cn3)c2)CCSC(N)=N1` (stereo not shown) [Compound 651], 193 to 196 °C.
On the same count and under the same terms, under `COC(=O)c1ccc(C2(C)CCSC(N)=N2)cc1` (stereo not shown) [Compound 1119] stands 153 to 157 °C; under `CNC(=O)c1ccc(C2(C)CCSC(N)=N2)cc1` (stereo not shown) [Compound 1120], 213 to 214 °C; under `CC1(c2csc(C(=O)Nc3ccccc3)c2)CCSC(N)=N1` (stereo not shown) [Compound 235], 196 to 200 °C.
Same read-out and setting: under `CC1(c2cccc(Oc3ccccc3)c2)CCSC(N)=N1` (stereo not shown) [Compound 1139] stands 140 to 141 °C; under `CC1(c2ccc3ccccc3c2)CSC(N)=N1.Cl` (stereo not shown), 264 to 265 °C.
With `COc1ccc(C2(C)CCCN=C(N)S2)cc1.Cl` (stereo not shown), the melting point was 130 to 131 °C.
On the same count and under the same terms, under `CC1(c2ccc(OCCc3ccc(O)cc3)cc2)CCSC(N)=N1` (stereo not shown) [Compound 881] stands 141 to 144 °C; under `COc1ccc(C2(C)CCSC(NC(=N)N)=N2)cc1F.Cl` (stereo not shown), 167 to 174 °C; under `CNC(=O)CNC1=NC(C)(c2ccc3ccccc3c2)CCS1` (stereo not shown) [Compound 930], 132.1 to 134.4 °C.
Same read-out and setting: under `COc1ccc(C2(C)CCCN=C(NC(C)(C)C)S2)cc1` (stereo not shown) [Compound 354] stands 102 to 103 °C; under `CCN(C(=O)c1ccco1)c1cccc(C2(C)CCSC(N)=N2)c1.Cl` (stereo not shown), 262 to 267 °C; under `COC(=O)c1cccc(C2(C)CCSC(N)=N2)c1` (stereo not shown) [Compound 1153], 156 to 159 °C.
Same read-out and setting: under `CC1(c2ccc(OCc3ccccc3)cc2)CCSC(N)=N1` (stereo not shown) [Compound 892] stands 251 °C (dec.); under `CC1(c2ccc(OCc3ccc(-c4ccccc4)cc3)cc2)CCSC(N)=N1.Cl` (stereo not shown), 281 °C (dec.).
In turn, `CC1(c2cc(NC(=O)c3ncc(Cl)cc3Cl)ccc2F)CCSC(N)=N1` (stereo not shown) [Compound 827] displayed a melting point of 134 to 137 °C.
On the same count and under the same terms, under `CC1(c2cccc(O)c2)CCSC(N)=N1.Cl` (stereo not shown) stands 238 to 239 °C; under `CC1(c2ccc(F)c(-n3nc4c5cc(Cl)ccc5[nH]cc-4c3=O)c2)CCSC(N)=N1` (stereo not shown) [Compound 1166], 290 to 295 °C.
The same measure, in the same setting: under `CCCCOc1ccc(C2(C)CCSC(N)=N2)cc1` (stereo not shown) [Compound 636] stands 118 to 119 °C; under `CC1(c2cccc(CN3CCOCC3)c2)CCSC(N)=N1` (stereo not shown) [Compound 649], 161 to 162 °C; under `CO/N=C(\C)c1cccc(C2(C)CCSC(N)=N2)c1.Cl` (stereo not shown), 192 to 194 °C.
The same measure, in the same setting: under `CN(C)C(=O)c1ccc(C2(C)CCSC(N)=N2)cc1` (stereo not shown) [Compound 644] stands 201 to 203 °C; under `CC(C)(C)NC1=NC(C)(c2ccccc2)CCCS1` (stereo not shown) [Compound 810], 47 to 48 °C.
Compound `CCCC1(c2ccc(OC)cc2)CCSC(N)=N1` (stereo not shown) [Compound 202] returned a melting point of 117 to 118 °C.
Same read-out and setting: under `Cc1ccc(Oc2ccc(C3(C)CCSC(N)=N3)cc2)cc1` (stereo not shown) [Compound 1067] stands 162 to 165 °C.
`NC1=NC2(CCCc3ccccc32)CCS1` (stereo not shown) [Compound 445]: the melting point was 92 to 93 °C.
On to `CC1(c2ccc(N)cc2)CCSC(N)=N1` (stereo not shown) [Compound 58], for which the melting point is 234 to 240 °C.
In the case of `Cn1nc(C(=O)Nc2cccc(C3(C)CCSC(N)=N3)c2)cc1[N+](=O)[O-]` (stereo not shown) [Compound 601], the melting point is 181 to 192 °C.
`COc1ccc(C2(C)CCCSC(N)=N2)cc1` (stereo not shown) [Compound 1008] displayed a melting point of 125 to 126 °C.
With `CC1(c2cccc(NC(=O)c3ncc(Cl)cc3O)c2)CCSC(N)=N1` (stereo not shown) [Compound 717], the melting point fell in the range of 157 to 162 °C.
The same measure, in the same setting: under `CC1(c2cc(F)cc(NC(=O)c3cnccn3)c2)CCSC(N)=N1` (stereo not shown) [Compound 244] stands 222 to 224 °C.
Same read-out and setting: under `CC1(c2ccccc2)CCN=C(N)S1.Cl` (stereo not shown) stands 201 to 204 °C.
Turning to `CC1(c2ccc(C(F)(F)F)cc2)CCSC(N)=N1` (stereo not shown) [Compound 573], the melting point was in the range of 112 to 114 °C.
The same measure, in the same setting: under `CC1(c2ccc(C(=O)Nc3ccc(Cl)cc3)cc2)CCSC(N)=N1` (stereo not shown) [Compound 1230] stands 232 to 234 °C.
Same read-out and setting: under `CC1(c2ccc(F)c(C(=O)Nc3cc(Cl)ccn3)c2)CCSC(N)=N1` (stereo not shown) [Compound 1068] stands 132 to 134 °C; under `CC1(c2cccc(COc3ccc(Cl)cn3)c2)CCSC(N)=N1` (stereo not shown) [Compound 683], 166 to 168 °C; under `COc1ccc(C2(C)CC(C)SC(N)=N2)cc1` (stereo not shown) [Compound 86], 141 to 142 °C.
In the case of `CCC1(c2ccc(OC)cc2)CCSC(N)=N1` (stereo not shown) [Compound 709], the melting point fell in the range of 99 to 100 °C.
On the same count and under the same terms, under `NC1=NC2(CCS1)CCc1ccccc12` (stereo not shown) [Compound 525] stands 105 to 106 °C; under `CC1(c2cc(F)cc(NC(=O)c3ncc(Cl)cc3Cl)c2)CCSC(N)=N1` (stereo not shown) [Compound 342], 184 to 187 °C; under `CC(C)(C)c1cccc(Oc2ccc(C3(C)CCSC(N)=N3)cc2)c1` (stereo not shown) [Compound 401], 106 to 107 °C.
Same read-out and setting: under `CN1C(=N)SCCC1(C)c1ccc2ccccc2c1.Cl` (stereo not shown) stands 266 to 268 °C.
Still for that read-out and setting: under `CC(C)c1ccc2cc(C3(C)CCSC(N)=N3)ccc2c1` (stereo not shown) [Compound 811] stands 138 to 139 °C.
As for `CC1(c2cccc(NC(=O)c3ncc(Cl)cc3N)c2)CCSC(N)=N1` (stereo not shown) [Compound 743], the melting point lay within 148 to 150 °C.
The same measure, in the same setting: under `CC(=O)/N=C1\NC(C)(c2ccc(F)cc2)CCS1` (stereo not shown) [Compound 767] stands 98 to 100 °C; under `CC1(c2cccc3c2CC(=O)N3)CCSC(N)=N1.Cl` (stereo not shown), 272 to 285 °C (dec.).
On the same count and under the same terms, under `Cc1ccc(C(=O)NCc2cccc(C3(C)CCSC(N)=N3)c2)cc1.Cl` (stereo not shown) stands 153 to 155 °C.
The compound `CC1(c2ccc(Cl)cc2)CSC(N)=N1` (stereo not shown) [Compound 24] yielded a melting point of 116 to 117 °C.
The same measure, in the same setting: under `CC1(c2ccc(-c3ccccc3)cc2)CCSC(N)=N1` (stereo not shown) [Compound 1181] stands 194 to 195 °C; under `CC1(c2ccccc2)CN=C(N)SC1.Cl` (stereo not shown), 235 to 240 °C.
For `Cc1cccc(Oc2ccc(C3(C)CCSC(N)=N3)cc2)c1` (stereo not shown) [Compound 1110], the melting point is 109 to 110 °C.
The same measure, in the same setting: under `COc1ccccc1C1(C)CCSC(N)=N1` (stereo not shown) [Compound 680] stands 159 to 160 °C.

For the origin of these results see patent US8546380B2, “Aminodihydrothiazine derivatives” (Shionogi & Co., Ltd., priority 2005, dated 2013).
